Test results: patent US11678682B2, “Phosphor composition having selected surface coatings” (IMMUNOLIGHT, LLC, priority 2013, dated 2023)
Where two headings read alike, the source gives them in different places.

How the values were obtained:
[1] = tested on: cisplatin-resistant cells; conditions: photolyzed complex; cited from earlier work
[2] = tested on: human bladder cancer cells; conditions: cited from earlier work
B16 cancer cells = assay: Clonogenic cell kill (surviving colonies) with x-ray stimulated phosphor mixtures with and without psoralen (AMT); type: cell-based
Excerpt: Accordingly, combinations of more than two “visible” phosphors can be used in this invention. Discussed below are x-ray settings and mass ratios for clonogenic cell kill experiments. F1 refers to the insertion of an aluminum filter into the x-ray beam to act as a filter.
Psoralen is known to be activated by UV light in the range from 300 to 400 nm. Thus, a measure of cell kill would normally be assumed to be an indirect measure of the internal generation of UV light.
FIGS. 18A and 18B is a plotted cell kill comparison (shown here as the number of surviving colonies) between B16 cancer cells treated with and without psoralen (i.e., AMT) with different phosphor mixtures, but otherwise being x-ray stimulated and containing the multiple phosphor combinations noted above. On these drawings, LDLE=low xRT dose, low energy; HDHE=high xRT dose, high energy.

cells = cells kept in the dark compared to those exposed to light; cited from earlier work

For Cis,trans,cis-[Pt(N3)2(OH)2(NH3)2], the growth inhibition [1] is listed as “inhibits the growth”, the growth inhibition ([2]; cells treated with the complex and kept in the dark) is listed as “very little growth inhibition” and the growth inhibition ([2]; photolyzed complex) is listed as “inhibits the growth”.

For `O=c1ccc2cc3ccoc3cc2o1` [psoralen], the “cell kill (number of surviving colonies), with versus without psoralen (FIGS. 18A and 18B)” value (B16 cancer cells; B16 cells, x-ray stimulated RYG/FYG phosphor mixtures) was “improved cell kill”, the “clonogenic colony survival, with versus without psoralen (FIG. 19C)” value (B16 cancer cells; flamingo, yellow, green FYG phosphor combination) was “pronounced cell kill” and the “cell kill, with versus without psoralen (FIGS. 19A and 19B)” value (B16 cancer cells; higher kVp x-ray conditions) was “does not show an increased kill”.

In the case of `NCCN.[Cl][Pt]([Cl])([I])[I]` [[PtCl2I2(en)]], the “cytotoxicity, dark versus light” value (cells) is listed as “no difference in cytotoxicity”.
